Results as given in patent US11713335B2, “Aminocoumarin compounds and methods of their use” (President and Fellows of Harvard College, priority 2018, dated 2023).
In brackets after ≈: the same amount, converted by molar mass. Structures can show the parent of a compound that is named as a salt. Where two headings read alike, the source gives them in different places.

Legend:
WT E. coli = assay: Minimal inhibitory concentration in wild-type E. coli; type: cell-based, Escherichia coli; details: wild-type E. coli, 37° C., 16 hours, read-out: MIC (μM) in WT E. coli
Protocol: General Procedure for Determination of Minimal Inhibitory Concentrations
Overnight cultures (5 mL) of bacterial strains were grown in LB media or TSA media (for S. aureus) at 37° C. and with shaking at 220 rpm until saturation. The overnight culture was diluted serially 1:100 (50 μL in 5 mL sterile media) and then 1:100 (250 μL in 25 mL sterile media). The 25 mL of diluted culture was then dispensed to a sterile 96 well plate (Corning #3370). 198 μL of culture were dispensed into row A and 100 μL of this culture were dispensed into rows B-H. Aminocoumarin compound (DMSO stock) were added to the first row and then the row was mixed by pipetting. 100 μL of culture from row A were transferred to row B and the serial dilution continued until the final 100 μL from row H were discarded. The plate was incubated without shaking in a 37° C. for 16 hours and then read by visible light spectrophotometer (Molecular Devices) at 600 nm. The minimal inhibitory concentration (MIC) was determined as the lowest concentration of compound concentration that inhibited the growth of bacteria.

S. aureus RN4220 = assay: Minimal inhibitory concentration, S. aureus RN4220; type: cell-based; details: 16 hour minimal inhibitory concentration at 37° C., read-out: MIC (μM) S. aureus RN4220
Procedure, shortened: (§1)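 MIC, in µM, taken as the lowest compound concentration preventing growth by OD600 after 16 h static incubation at 37 °C. Compound was twofold serially diluted in bacteria grown overnight in LB, or TSA for S. aureus, and diluted 1:100 twice.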

S. aureus MW2 = assay: Minimal inhibitory concentration, S. aureus MW2; type: cell-based; details: 16 hour minimal inhibitory concentration at 37° C., read-out: MIC (μM) S. aureus MW2 (MRSA)
Procedure, shortened: as §1

E. cloacae 13047 = assay: Minimal inhibitory concentration, E. cloacae 13047; type: cell-based; details: 16 hour minimal inhibitory concentration at 37° C., read-out: MIC (μM) E. cloacae 13047
Procedure, shortened: as §1

A. baumannii 19606 = assay: Minimal inhibitory concentration, A. baumannii 19606; type: cell-based; details: 16 hour minimal inhibitory concentration at 37° C., read-out: MIC (μM) A. baumannii 19606
Procedure, shortened: as §1

K. pneumoniae 700721 = assay: Minimal inhibitory concentration, K. pneumoniae 700721; type: cell-based; details: 16 hour minimal inhibitory concentration at 37° C., read-out: MIC (μM) K. pneumoniae 700721
Procedure, shortened: as §1

E. coli MC4100 = assay: Minimal inhibitory concentration, E. coli MC4100; type: cell-based; details: 16 hour minimal inhibitory concentration at 37° C., read-out: MIC (μM) E. coli MC4100 ara+
Procedure, shortened: as §1

E. coli 25922 = assay: Minimal inhibitory concentration, E. coli 25922; type: cell-based; details: 16 hour minimal inhibitory concentration at 37° C., read-out: MIC (μM) E. coli 25922
Procedure, shortened: as §1

[1] = Staphylococcus aureus, RN4220, 16 h
[2] = Staphylococcus aureus, MRSA, 16 h
[3] = Acinetobacter baumannii, 19606, 16 h

MIC (WT E. coli)	SMILES	MIC (S. aureus RN4220; [1])	MIC (S. aureus MW2; [2])	MIC (E. cloacae 13047; Enterobacter cloacae, 13047)	MIC (A. baumannii 19606; [3])	MIC (K. pneumoniae 700721; Klebsiella pneumoniae, 700721)	MIC (E. coli MC4100; Escherichia coli, MC4100, 16 h)	MIC (E. coli 25922; Escherichia coli, 25922, 16 h)	other results
–	CO[C@@H]1[C@@H](OC(N)=O)[C@@H](O)[C@H](Oc2ccc3c(O)c(NC(=O)c4cccc(-c5ccccc5)c4)c(=O)oc3c2C)OC1(C)C [Compound 1]	5 µM (≈ 3.02 µg/mL)	5 µM (≈ 3.02 µg/mL)	> 100 µM	> 50 µM	> 100 µM	26 µM (≈ 15.7 µg/mL)	41 µM (≈ 24.8 µg/mL)	MIC (WT E. coli; Escherichia coli): 26 µM (≈ 15.7 µg/mL)
>300 µM	CO[C@@H]1[C@@H](OC(N)=O)[C@@H](O)[C@H](Oc2ccc3c(O)c(NC(=O)c4ccc(C)o4)c(=O)oc3c2C)OC1(C)C [Compound 12]	–	–	–	–	–	–	–	–
>300 µM	CO[C@@H]1[C@@H](OC(N)=O)[C@@H](O)[C@H](Oc2ccc3c(O)c(NC(=O)c4cccc(-c5cn[nH]c5)c4)c(=O)oc3c2C)OC1(C)C [Compound 18]	–	–	–	–	–	–	–	–
–	COC1[C@H](OC(N)=O)C(O)[C@H](Oc2ccc3c(O)c(N)c(=O)oc3c2C)OC1(C)C (some centres unmarked) [Compound 19, novenamine hydrochloride]	–	–	–	–	–	–	–	MIC (WT E. coli; Escherichia coli): > 300 µM
–	CO[C@@H]1[C@H](OC(N)=O)C(O)[C@H](Oc2ccc3c(O)c(NS(=O)(=O)c4cccc(-c5ccccc5)c4)c(=O)oc3c2C)OC1(C)C (some centres unmarked) [Compound 36]	–	–	–	–	–	–	–	MIC (WT E. coli; Escherichia coli): > 300 µM
>300 µM	CO[C@@H]1[C@@H](OC(N)=O)[C@@H](O)[C@H](Oc2ccc3c(O)c(NC(=O)c4ccc(O)c(C/C=C/CC(=O)O)c4)c(=O)oc3c2C)OC1(C)C [Compound 80]	–	–	–	–	–	–	–	–
–	CO[C@@H]1[C@@H](OC(N)=O)[C@@H](O)[C@H](Oc2ccc3c(O)c(NC(=O)c4cccc(Oc5ccc(C#N)cc5)c4)c(=O)oc3c2C)OC1(C)C [Compound 242]	> 100 µM	77 µM (≈ 49.7 µg/mL)	> 100 µM	> 50 µM	> 100 µM	153 µM (≈ 98.8 µg/mL)	154 µM (≈ 99.4 µg/mL)	–
–	CO[C@@H]1[C@@H](OC(N)=O)[C@@H](O)[C@H](Oc2ccc3c(O)c(NC(=O)c4cccc(Oc5ccc(Cl)cc5)c4)c(=O)oc3c2C)OC1(C)C [Compound 243]	10 µM (≈ 6.55 µg/mL)	10 µM (≈ 6.55 µg/mL)	> 100 µM	> 50 µM	> 100 µM	4.8 µM (≈ 3.14 µg/mL)	38 µM (≈ 24.9 µg/mL)	–
–	CO[C@@H]1[C@@H](OC(N)=O)[C@@H](O)[C@H](Oc2ccc3c(O)c(NC(=O)c4cc(Oc5ccccc5)c(O)cc4O)c(=O)oc3c2C)OC1(C)C [Compound 244]	19 µM (≈ 12.4 µg/mL)	19 µM (≈ 12.4 µg/mL)	> 100 µM	> 50 µM	38 µM (≈ 24.8 µg/mL)	4.8 µM (≈ 3.13 µg/mL)	38 µM (≈ 24.8 µg/mL)	–
–	CO[C@@H]1[C@@H](OC(N)=O)[C@@H](O)[C@H](Oc2ccc3c(O)c(NC(=O)c4cccc(Oc5cccc(Cl)c5)c4)c(=O)oc3c2C)OC1(C)C [Compound 245]	10 µM (≈ 6.55 µg/mL)	19 µM (≈ 12.4 µg/mL)	> 100 µM	> 50 µM	> 100 µM	38 µM (≈ 24.9 µg/mL)	76 µM (≈ 49.8 µg/mL)	–
–	CO[C@@H]1[C@@H](OC(N)=O)[C@@H](O)[C@H](Oc2ccc3c(O)c(NC(=O)c4cccc(Oc5ccccc5Cl)c4)c(=O)oc3c2C)OC1(C)C [Compound 246]	10 µM (≈ 6.55 µg/mL)	5 µM (≈ 3.28 µg/mL)	> 100 µM	> 50 µM	> 100 µM	79 µM (≈ 51.7 µg/mL)	76 µM (≈ 49.8 µg/mL)	–

SMILES	MIC (WT E. coli)	MIC (S. aureus RN4220; [1])	MIC (S. aureus MW2; [2])	MIC (E. cloacae 13047; Enterobacter cloacae, 13047)	MIC (A. baumannii 19606; [3])	MIC (K. pneumoniae 700721; Klebsiella pneumoniae, 700721)	MIC (E. coli MC4100; Escherichia coli, MC4100, 16 h)	MIC (E. coli 25922; Escherichia coli, 25922, 16 h)	other results
COC1C(OC(N)=O)C(O)C(Oc2ccc3c(O)c(NC(=O)C4CCCC(C5CCCCC5)C4)c(=O)oc3c2C)OC1(C)C (mixture of isomers) [Compound 63]	300 µM	–	–	–	–	–	–	–	MIC (S. aureus RN4220): 10 µM; MIC (S. aureus MW2): 5 µM; MIC (E. cloacae 13047): >100 µM; MIC (A. baumannii 19606): >50 µM; MIC (K. pneumoniae 700721): >100 µM; MIC (E. coli MC4100): >200 µM; MIC (E. coli 25922): >200 µM
